Assay results as given in EP4737445A1, “NOVEL SATURATED HETEROCYCLE-SUBSTITUTED HETEROARYL-CARBONOHYDRAZONOYL DICYANIDE COMPOUND AND USE THEREOF” (Korea Institute of Science and Technology, priority 2023, dated 2025).
Read-outs that look alike come from different tables or passages of the source.

What was measured:
Tau = molecular target: T1, Tau (Homo sapiens, UniProt P10636); assay: Tau aggregation inhibition in Tau-BiFC cell model (Forskolin-induced); type: cell-based
T1 construct: BiFC fluorescent-protein fragments (two complementary halves on two tau copies); expressed in transfected cells
T1 sequence (P10636 1-441 isoform P10636-8): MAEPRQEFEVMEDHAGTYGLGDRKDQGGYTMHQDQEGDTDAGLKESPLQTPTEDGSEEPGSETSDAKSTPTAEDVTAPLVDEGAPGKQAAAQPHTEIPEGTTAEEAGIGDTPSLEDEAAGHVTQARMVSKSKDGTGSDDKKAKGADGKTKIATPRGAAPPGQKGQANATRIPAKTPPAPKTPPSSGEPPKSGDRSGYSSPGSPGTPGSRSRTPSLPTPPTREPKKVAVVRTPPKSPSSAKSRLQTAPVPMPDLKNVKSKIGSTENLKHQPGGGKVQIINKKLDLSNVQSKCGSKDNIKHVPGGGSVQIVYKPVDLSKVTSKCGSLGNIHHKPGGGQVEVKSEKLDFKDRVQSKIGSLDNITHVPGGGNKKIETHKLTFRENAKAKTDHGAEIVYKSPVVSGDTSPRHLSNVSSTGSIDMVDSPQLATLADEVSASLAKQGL
In short: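 Tau-BiFC cells were co-treated with compound (1, 3, 10 µM for screening; 0.03–30 µM for IC50) and 30 µM Forskolin for 48 h. BiFC fluorescence was normalised to the Forskolin-only window for aggregation; viability came from Hoechst-stained nuclei counts relative to Forskolin-only (100%). IC50 was derived by nonlinear regression.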

CYP3A4 = molecular target: T2, CYP3A4 (Homo sapiens, UniProt P08684); assay: CYP isoenzyme activity inhibition in human liver microsomes, CYP3A4; type: in vitro ADME; settings: 10 µM compound; human liver microsomes 0.25 mg/mL; relative to control without compound
T2 construct: human liver microsomes (0.25 mg/mL); from tissue; host or cells: human liver microsomes
T2 sequence (P08684 whole entry): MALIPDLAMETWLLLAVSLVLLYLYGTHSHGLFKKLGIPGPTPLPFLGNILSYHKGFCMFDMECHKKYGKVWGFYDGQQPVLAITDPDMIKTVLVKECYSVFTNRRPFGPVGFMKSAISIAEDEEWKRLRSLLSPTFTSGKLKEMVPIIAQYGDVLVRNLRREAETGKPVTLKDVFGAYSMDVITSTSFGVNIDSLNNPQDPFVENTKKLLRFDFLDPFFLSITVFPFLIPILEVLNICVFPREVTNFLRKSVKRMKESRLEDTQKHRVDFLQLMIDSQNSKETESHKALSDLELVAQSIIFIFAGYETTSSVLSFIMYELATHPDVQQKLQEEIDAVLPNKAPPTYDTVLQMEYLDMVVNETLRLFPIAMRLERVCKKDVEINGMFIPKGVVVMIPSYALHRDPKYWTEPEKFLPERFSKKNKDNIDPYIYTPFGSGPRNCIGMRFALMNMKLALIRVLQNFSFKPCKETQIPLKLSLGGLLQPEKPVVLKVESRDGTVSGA
Description: The CYP isoenzyme activity inhibitory effect by the compounds prepared according to Examples 1 to 46 was confirmed. Specifically, human liver microsomes (0.25 mg/mL), 0.1 M phosphate buffer solution (pH 7.4), a substrate drug cocktail of five drug metabolizing enzymes (Phenacetin 50 µM, Diclofenac 10 µM, S-mephenytoin 100 µM, Dextromethorphan 5 µM, and Midazolam 2.5 µM), and the compounds were added at concentrations of 0 or 10 µM, respectively, and pre-incubated at 37°C for 5 minutes, and then NADPH generation system solution was added and incubated at 37°C for an additional 15 minutes. Thereafter, an acetonitrile solution containing an internal standard (Terfenadine) was added to terminate the reaction, and after centrifugation for 5 minutes (14,000 rpm, 4°C), the supernatant was injected into an LC-MS/MS system to simultaneously analyze the metabolites of the substrate drugs, thereby evaluating the drug metabolizing enzyme inhibitory activity.
The metabolites of each CYP isoenzyme marker drug generated through the reaction were analyzed using a Shimadzu Nexera XR system and TSQ vantage (Thermo). A Kinetex C18 (2.1 × 100 mm, 2.6 µm, particle size; Phenomenex, USA) was used as the HPLC column, and (A) distilled water containing 0.1% formic acid and (B) acetonitrile containing 0.1% formic acid were used as mobile phases, and a gradient program as shown in Table 6 below was applied.
The generated metabolites were quantified using MRM (Multiple Reaction Monitoring) quantitative mode, and Xcalibur (version 1.6.1) was used for data analysis. To show the CYP isoenzyme activity inhibitory effect of the novel compounds prepared according to the Examples of the disclosure, the % activity of CYP isoenzymes relative to the control group without compound addition is shown in Table 6 below. Additionally, to confirm the difference in effect according to substituents, Comparative Compounds 1 and 5, which are two compounds that share a similar parent nucleus structure with Compounds 1 to 46 of the disclosure while Cy is substituted with aromatic heteroaryl instead of saturated heterocyclyl, were selected as comparative compounds and their activities are shown together.

[1] = Liver microsomal stability, rat; type: in vitro ADME; settings: 1 µM compound; 0.5 mg/mL microsomes; NADPH; 30 minutes at 37°C
Description: Liver microsomal stability by the compounds prepared according to Examples 1 to 46 was confirmed. Specifically, four types of liver microsomes (human, dog, rat, and mouse each at 0.5 mg/mL), 0.1 M phosphate buffer solution (pH 7.4), and the compounds at 1 µM concentration were added and pre-incubated at 37°C for 5 minutes, and then NADPH generation system solution was added and incubated at 37°C for an additional 30 minutes. Thereafter, an acetonitrile solution containing an internal standard (chloropropamide) was added to terminate the reaction, and after centrifugation for 5 minutes (14,000 rpm, 4°C), the supernatant was injected into an LC-MS/MS system to analyze the substrate drug, thereby evaluating the metabolic stability of 8 compounds.
The amount of remaining substrate through the reaction was analyzed using a Shimadzu Nexera XR system and TSQ vantage (Thermo). A Kinetex XB-C18 (2.1 × 100 mm, 2.6 µm, particle size; Phenomenex, USA) was used as the HPLC column, and (A) distilled water containing 0.1% formic acid and (B) acetonitrile containing 0.1% formic acid were used as mobile phases. Analyst software (version 1.6.3) and Xcalibur (version 1.6.1) were used for data analysis. The calculated results are shown in Table 5 below: Liver microsomal stability data of novel compounds from […] (human, rat, and mouse).

[2] = read-out: Tau aggregation inhibitory effect IC50, Tau-BiFC cell line, Forskolin 30 µM, 48 hours, 0.03-30 µM

Row | Compound | IC50 (Tau) [nM] | CYP3A4 (% activity) (CYP3A4) | Rat microsomes (% remaining) [1] [% remaining] | IC50 (Tau; [2]) [nM]
1 | CC1CN(c2nc3ccc(NN=C(C#N)C#N)cc3s2)CCO1 (stereo not drawn) [Compound 12, (2-(2-methylmorpholino)benzo[d]thiazol-6-yl)carbonohydrazonoyl dicyanide] | 32 | 78.9 | 70.1 | –
2 | CC1COCCN1c1nc2ccc(NN=C(C#N)C#N)cc2s1 (stereo not drawn) [Compound 13, (2-(3-methylmorpholino)benzo[d]thiazol-6-yl)carbonohydrazonoyl dicyanide] | 20 | 84.8 | 47.7 | –
3 | CC1CN(c2nc3ccc(NN=C(C#N)C#N)cc3o2)CCO1 (stereo not drawn) [Compound 15, (2-(2-methylmorpholino)benzo[d]oxazol-6-yl)carbonohydrazonoyl dicyanide] | 48 | 87.3 | 60 | –
4 | CC1COCCN1c1nc2ccc(NN=C(C#N)C#N)cc2o1 (stereo not drawn) [Compound 16, (2-(3-methylmorpholino)benzo[d]oxazol-6-yl)carbonohydrazonoyl dicyanide] | 49 | 96.7 | 49.6 | –
5 | COC1CCN(c2nc3ccc(NN=C(C#N)C#N)cc3o2)CC1 [Compound 17, (2-(4-methoxypiperidin-1-yl)benzo[d]oxazol-6-yl)carbonohydrazonoyl dicyanide] | 88 | 87.1 | 59.3 | –
6 | CC1CN(c2nc3ccc(NN=C(C#N)C#N)cc3o2)CC(C)O1 (stereo not drawn) [Compound 18, (2-(2,6-dimethylmorpholino)benzo[d]oxazol-6-yl)carbonohydrazonoyl dicyanide] | 128 | 94.6 | 72.9 | –
7 | N#CC(C#N)=NNc1ccc2nc(N3C4CCC3COC4)oc2c1 [Compound 20, (2-(3-oxa-8-azabicyclo[3.2.1]octan-8-yl)benzo[d]oxazol-6-yl)carbonohydrazonoyl dicyanide] | 11 | 55.4 | 82.9 | –
8 | N#CC(C#N)=NNc1ccc2nc(N3CC4CCC(C3)O4)sc2c1 [Compound 23, (2-(8-oxa-3-azabicyclo[3.2.1]octan-3-yl)benzo[d]thiazol-6-yl)carbonohydrazonoyl dicyanide] | 48 | 71.7 | 69.8 | –
9 | N#CC(C#N)=NNc1ccc2nc(N3CC4CCC(C3)O4)oc2c1 [Compound 26, (2-(8-oxa-3-azabicyclo[3.2.1]octan-3-yl)benzo[d]oxazol-6-yl)carbonohydrazonoyl dicyanide] | 10 | 81.3 | 95.1 | –
10 | CC(C)N1CCN(c2nc3ccc(NN=C(C#N)C#N)cc3o2)CC1 [Compound 28, (2-(4-isopropylpiperazin-1-yl)benzo[d]oxazol-6-yl)carbonohydrazonoyl dicyanide] | 16 | 87.8 | 50.7 | –
11 | CC(=O)N1CCN(c2nc3ccc(NN=C(C#N)C#N)cc3s2)CC1 [Compound 30, (2-(4-acetylpiperazin-1-yl)benzo[d]thiazol-6-yl)carbonohydrazonoyl dicyanide] | 60 | 74.6 | 91.9 | –
12 | CC(=O)N1CCN(c2nc3ccc(NN=C(C#N)C#N)cc3o2)CC1 [Compound 31, (2-(4-acetylpiperazin-1-yl)benzo[d]oxazol-6-yl)carbonohydrazonoyl dicyanide] | 88 | 88.3 | 88.3 | –
13 | CCn1c(N2CCOCC2)nc2ccc(NN=C(C#N)C#N)cc21 [Compound 32, (1-ethyl-2-morpholino-1H-benzo[d]imidazol-6-yl)carbonohydrazonoyl dicyanide] | 12 | 73 | 81.7 | –
14 | CCn1c(N2CCOCC2)nc2cc(NN=C(C#N)C#N)ccc21 [Compound 33, (1-ethyl-2-morpholino-1H-benzo[d]imidazol-5-yl)carbonohydrazonoyl dicyanide] | 4 | 75.4 | 96.8 | –
15 | Cn1c(N2C3CCC2COC3)nc2ccc(NN=C(C#N)C#N)cc21 [Compound 34, (2-(3-oxa-8-azabicyclo[3.2.1]octan-8-yl)-1-methyl-1H-benzo[d]imidazol-6-yl)carbonohydrazonoyl dicyanide] | 12 | 84.3 | 97.1 | –
16 | Cn1c(N2C3CCC2COC3)nc2cc(NN=C(C#N)C#N)ccc21 [Compound 35, (2-(3-oxa-8-azabicyclo[3.2.1]octan-8-yl)-1-methyl-1H-benzo[d]imidazol-5-yl)carbonohydrazonoyl dicyanide] | 12 | 86.1 | 74.1 | –
17 | N#CC(C#N)=NNc1ccc2nc(NC(=O)N3CCOCC3)sc2c1 [Compound 38, (2-(morpholine-4-carboxamido)benzo[d]thiazol-6-yl)carbonohydrazonoyl dicyanide] | – | 86.7 | 96.0 | 68
18 | CC1CN(C(=O)Nc2nc3ccc(NN=C(C#N)C#N)cc3s2)CC(C)O1 (stereo not drawn) [Compound 39, (2-(2,6-dimethylmorpholine-4-carboxamido)benzo[d]thiazol-6-yl)carbonohydrazonoyl dicyanide] | 44 | 56.5 | 82.3 | –
19 | N#CC(C#N)=NNc1ccc2nc(NC(=O)N3CC4CCC(C3)O4)sc2c1 [Compound 40, (2-(8-oxa-3-azabicyclo[3.2.1]octane-3-carboxamido)benzo[d]thiazol-6-yl)carbonohydrazonoyl dicyanide] | – | 75.5 | 87.7 | 316
20 | N#CC(C#N)=NNc1ccc2nc(N3CC[C@@H](F)C3)oc2c1 [Compound 41, (R)-(2-(3-fluoropyrrolidin-1-yl)benzo[d]oxazol-6-yl)carbonohydrazonoyl dicyanide] | – | 86.5 | 19.0 | 260
